Source: publication PMC7508162 (Frontiers in Pharmacology, 2020)

How the values were obtained:
[1] = biological target: T1, human NPP5 (Homo sapiens, UniProt Q9UJA9); assay: NPP5 assay with ϵ-NAD+ as substrate; assay type: biochemical; details: for inhibition at 10 µM: 10 µM test compound; for Ki: 20 µM ϵ-NAD+, read-out: Ki ± SEM
T1 construct: the catalytic domains of the enzymes were amplified and sub-cloned into the expression vector pACGP67 A/B; 9xHis (C); made in house; host or cells: Sf9 insect cells (baculovirus, pACGP67 A/B)
T1 sequence (Q9UJA9 25-431 limits assumed): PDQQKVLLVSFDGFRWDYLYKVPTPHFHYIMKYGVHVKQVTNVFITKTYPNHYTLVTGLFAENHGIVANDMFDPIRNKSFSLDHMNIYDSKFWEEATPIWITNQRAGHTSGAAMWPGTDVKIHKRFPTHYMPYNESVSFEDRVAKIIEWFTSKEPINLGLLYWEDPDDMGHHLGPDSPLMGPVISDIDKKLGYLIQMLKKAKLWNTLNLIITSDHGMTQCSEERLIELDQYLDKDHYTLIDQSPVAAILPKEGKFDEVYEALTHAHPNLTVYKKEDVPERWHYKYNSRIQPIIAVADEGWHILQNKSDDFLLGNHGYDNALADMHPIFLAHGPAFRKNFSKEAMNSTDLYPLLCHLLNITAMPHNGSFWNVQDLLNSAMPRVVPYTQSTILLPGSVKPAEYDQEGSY
Text: The cDNAs of the human enzymes NPP1, NPP3, NPP5, CD38 and CD73 (Genbank accession no. NM_006258, NM_005021, NM_021572, NM_ 001775, and NM_002526, respectively) were obtained from Origene (Rockville, USA). Soluble enzymes were produced as previously reported with some modifications ([Lee et al., 2015]; [Junker et al., 2019]). Briefly, the catalytic domains of the enzymes were amplified and sub-cloned into the expression vector pACGP67 A/B modified with the addition of 9 x histidine tag (His-tag) at the C-terminus (except for NPP1). The plasmids were transfected in Sf9 insect cells using Cellfectin™ II Reagent (Thermo Fisher Scientific, MA, USA) and ProEasy™ baculovirus linearized DNA (Cat.#A10S, AB Vector, LLC). Protein expression was conducted for 48 h at 27°C. The signal peptide sequence of the expression vector shuttled the proteins into the supernatant. The supernatant medium was collected, and the enzymes were purified using HisPur™ Ni^2+-NTA spin columns according to the manufacturer’s protocol. The protein concentration was determined by the method previously described by [Lowry et al. (1951)].
The assays were performed in analogy to published procedures ([Blacher et al., 2015]). The enzymatic activity of human NPP3 and NPP5 (soluble forms expressed in insect cells and purified as previously described ([Lee et al., 2015]; [Lopez et al., 2020]) was measured using 1,N^6-etheno-nicotinamide adenine dinucleotide (ϵ-NAD^+) as a substrate, which is hydrolyzed to fluorescent 1,N^6-etheno-AMP (ϵ-AMP). The enzymatic reactions were performed in reaction buffer [10 mM N-cyclohexyl-2-aminoethanesulfonic acid (CHES), 2 mM CaCl2, and 1 mM MgCl2, pH 9.0 in H2O]. Purified NPP3 (90 ng) or NPP5 (400 ng), 20 µM of ϵ-NAD^+ and 10 µM of the test compound were incubated for 30 min at 37°C. The relative fluorescence at 270 nm excitation and 420 nm emission was detected by a fluorescence microplate reader (Flexstation, Medical Devices LLC. USA, Softmax Pro software to collect the data).

[2] = Metabolic stability in mouse liver microsomes; assay type: in vitro ADME; details: both sexes; mouse liver microsomes 0.5 mg/mL; compound 1 μM
Protocol: The experiments were performed by Pharmacelsus, Saarbrücken, Germany (https://www.pharmacelsus.com/services/in-vitro-adme/) using human and mouse liver microsomes (0.5 mg/mL, mixed gender, pooled). Compounds were tested at a concentration of 1 μM. Data points represent means of two separate experiments performed in duplicates.

Compound	inhibition at 10 µM [1]	Ki [1]	half-life at 1 μM [2]
CCN(CC)c1ncnc2c1ncn2[C@@H]1O[C@H](COP(=O)(O)OP(=O)(O)C(Br)(Br)P(=O)(O)O)[C@@H](O)[C@H]1O [ARL67156, (Dibromo((((((2R,3S,4R,5R)-5-(6-(diethylamino)-9H-purin-9-yl)-3,4-dihydroxytetrahydrofuran-2-yl)methoxy)-(hydroxy)-phosphoryl)oxy)(hydroxy)phosphoryl)methyl)-phosphonic Acid, reference compound]	-3%	> 10 µM	< 1 min
CCCCSc1nc2c(N)ncnc2n1[C@@H]1O[C@H](COP(=O)(O)OP(=O)(O)C(Br)(Br)P(=O)(O)O)[C@@H](O)[C@H]1O [Compound 31, (((((((2R,3S,4R,5R)-5-(6-Amino-8-(butylthio)-9H-purin-9-yl)-3,4-dihydroxytetrahydrofuran-2-yl)methoxy)(hydroxy)-phosphoryl)oxy)(hydroxy)phosphoryl)dibromomethyl)-phosphonic Acid]	2%	> 10 µM	< 1 min
CCCCNc1nc2c(NC)ncnc2n1[C@@H]1O[C@H](COP(=O)(O)OP(=O)(O)C(Br)(Br)P(=O)(O)O)[C@@H](O)[C@H]1O [Compound 33, (Dibromo((((((2R,3S,4R,5R)-5-(8-(butylamino)-6-(methylamino)-9H-purin-9-yl)-3,4-dihydroxy-tetrahydrofuran-2-yl)methoxy)(hydroxy)phosphoryl)oxy)-(hydroxy)phosphoryl)methyl)-phosphonic Acid]	1%	> 10 µM	< 1 min
